In publication PMC6018403 (Frontiers in Pharmacology, 2018):
“Also recorded” adds a separate entry of the source. Where two headings read alike, the source gives them in different places.

Tests used:
[1] = target: T1, P-glycoprotein (P-gp) (Homo sapiens, UniProt P08183); assay: P-gp inhibitor and inducer experiments on Caco-2 cell monolayer; type: in vitro ADME; conditions: for interaction with P-gp: Caco-2 cell monolayer
T1 construct: host or cells: Caco-2 (human colon adenocarcinoma) monolayers, passages 24-35
Method: (§1) The final concentration of GQD, GQD−GC, and Huang-Lian water extracts were 32, 28, and 6 μg/mL, respectively. […]
(§2) containing glucose (25 mM) and HEPES (10 mM). The final concentration of berberine was 5 µM. The final concentration of DMSO was below 1% (v/v). […]
(§3) inducer of Caco-2 cells, respectively. For the inhibitor experiments, the Caco-2 cells were cultivated in DMEM until the 21st day. After removal of the medium, the cells were incubated for 30 minutes with HBSS containing 5 µM of verapamil. For the inducer experiments, the cells were cultivated in DMEM until the 18th day, and then […]
(§4) was removed on the 21st day, and the cells were then incubated for 30 min with HBSS.
(§5) Berberine and glycyrrhizic acid were added to the system following HBSS incubation.
(§6) For all bidirectional transport assays, samples (300 µL) were collected after 30, 60, 90, […]
(§7) with an equal volume of HBSS. The samples were freeze-dried and then dissolved in 300 µL of methanol. The solutions were filtered through 0.22-µm membranes before […]
(§8) 3. Inhibitor and inducer experiments […]
(§9) respectively. For the inhibition experiments, Caco-2 cells were cultivated in DMEM until the 21st day. After removal of the medium, the cells were incubated for 30 minutes with HBSS containing verapamil (5 µM). For induction experiments, the cells were cultivated in DMEM until the 18th day, and then cultivated in DMEM […]
(§10) The medium was removed on the 21st day, and the cells were then incubated for 30 min with HBSS. Berberine and glycyrrhizic acid were added to the system following HBSS incubation.

[2] = Multi-component pharmacokinetic study of GQD, GQD-GC and single herb extracts in rats (plasma, LC/MS/MS); type: in vivo, Sprague-Dawley rats; conditions: for AUC(0-t) / Cmax / half-life / Tmax: male, Sprague-Dawley, rat; for AUC(0-t): po, read-out: AUClast; for Cmax: read-out: Cmax; for half-life: read-out: T1/2 (converted); for Tmax: read-out: Tmax
In short: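 Male Sprague-Dawley rats (220–250 g, n = 10 per group) dosed orally with GQD, GQD-GC (1.0 g crude drug/mL) or single-herb decoctions. Plasma analytes quantified by LC/MS/MS in positive-ESI SRM mode. Cmax and Tmax taken from measured data, other parameters by non-compartmental or compartmental analysis; mean ± SD.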

[3] = system: Caco-2 cell monolayer; assay: Caco-2 cell monolayer permeability test (bidirectional transport of berberine); type: in vitro ADME, Human; conditions: BER 5 μM
Method: as §1, §2, §3, §4, §5, §6, §7, §8, §9, §10

[4] = plasma, 18.9 g/kg, GQD group: rats, oral GQD extract 18.9 g/kg, plasma
[5] = GQD group: rats, oral GQD extract 18.9 g/kg, plasma
[6] = GQD-GC group (GQD without Gan-Cao): rats, oral 16.5 g/kg, plasma
[7] = HL (Huang-Lian) group: rats, oral extract 3.54 g/kg, plasma
[8] = GC (Gan-Cao) group: rats, oral extract 2.36 g/kg, plasma

T1 sequence (P08183 whole entry): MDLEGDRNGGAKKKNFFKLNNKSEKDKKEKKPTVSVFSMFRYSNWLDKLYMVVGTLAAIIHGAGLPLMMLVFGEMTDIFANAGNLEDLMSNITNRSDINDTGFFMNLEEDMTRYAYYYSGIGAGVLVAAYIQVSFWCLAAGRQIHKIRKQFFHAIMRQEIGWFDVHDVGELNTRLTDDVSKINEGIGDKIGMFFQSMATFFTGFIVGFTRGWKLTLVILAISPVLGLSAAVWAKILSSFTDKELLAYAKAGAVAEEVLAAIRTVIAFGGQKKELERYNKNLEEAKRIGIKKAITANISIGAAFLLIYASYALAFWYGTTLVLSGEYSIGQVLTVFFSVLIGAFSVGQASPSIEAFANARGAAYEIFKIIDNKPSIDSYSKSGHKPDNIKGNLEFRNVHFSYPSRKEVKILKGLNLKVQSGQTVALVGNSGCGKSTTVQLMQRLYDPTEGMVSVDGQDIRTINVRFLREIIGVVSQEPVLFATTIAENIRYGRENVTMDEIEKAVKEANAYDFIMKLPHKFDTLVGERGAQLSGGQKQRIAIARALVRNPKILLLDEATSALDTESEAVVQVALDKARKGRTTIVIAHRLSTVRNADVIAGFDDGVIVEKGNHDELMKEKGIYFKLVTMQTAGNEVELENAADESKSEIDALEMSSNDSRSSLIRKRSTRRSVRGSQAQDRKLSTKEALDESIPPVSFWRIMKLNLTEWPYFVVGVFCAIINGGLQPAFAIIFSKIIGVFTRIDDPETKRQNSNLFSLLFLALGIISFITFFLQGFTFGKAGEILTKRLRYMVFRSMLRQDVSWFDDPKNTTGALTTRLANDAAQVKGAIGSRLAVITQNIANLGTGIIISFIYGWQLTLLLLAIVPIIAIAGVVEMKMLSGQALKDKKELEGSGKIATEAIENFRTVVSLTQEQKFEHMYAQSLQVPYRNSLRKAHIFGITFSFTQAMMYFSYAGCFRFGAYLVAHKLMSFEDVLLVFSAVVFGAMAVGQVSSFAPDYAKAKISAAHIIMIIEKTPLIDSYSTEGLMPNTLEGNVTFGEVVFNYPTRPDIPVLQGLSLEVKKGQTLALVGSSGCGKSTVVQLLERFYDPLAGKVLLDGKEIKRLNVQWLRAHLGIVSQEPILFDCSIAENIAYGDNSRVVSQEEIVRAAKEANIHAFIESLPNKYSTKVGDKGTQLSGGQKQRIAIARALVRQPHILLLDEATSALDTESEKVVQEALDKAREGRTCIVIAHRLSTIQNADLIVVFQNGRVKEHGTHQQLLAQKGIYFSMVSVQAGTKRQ

In the case of `COc1ccc2cc3[n+](cc2c1OC)CCc1cc2c(cc1-3)OCO2` [Compound 24, berberine], the “interaction with P-gp” value [1] is reported as “P-gp substrate”, the AUC(0-t) ([2]; plasma, 3.54 g/kg, HL (Huang-Lian) group: rats, oral extract 3.54 g/kg, plasma) is reported as 198 ± 76.9 ng·h/mL and the AUC(0-t) ([2]; plasma, 3.54 g/kg, Huang-Lian group: rats, oral 3.54 g/kg, plasma) is reported as 198 ± 76.9 ng·h/mL. For the same compound, the AUC(0-t) ([2]; plasma, 16.5 g/kg, GQD-GC group (GQD without Gan-Cao): rats, oral 16.5 g/kg, plasma) was 149 ± 70.8 ng·h/mL, the AUC(0-t) ([2]; plasma, 16.5 g/kg, GQD−GC group: rats, oral 16.5 g/kg, plasma) was 149 ± 70.8 ng·h/mL and the AUC(0-t) [2, 4] was 389 ± 187 ng·h/mL. It also gave a Cmax [2, 5] of 28.2 ± 17.4 ng/mL, a half-life [2, 5] of 11.4 ± 2.78 h and a Tmax [2, 5] of 0.39 ± 0.76 h. The Cmax [2, 6] was 32.3 ± 13.2 ng/mL, the half-life [2, 6] was 7.09 ± 0.65 h and the Tmax [2, 6] was 0.35 ± 0.23 h. For the same compound, the Cmax [2, 7] was 76.7 ± 27.9 ng/mL, the half-life [2, 7] was 9.3 ± 1.67 h and the Tmax [2, 7] was 0.29 ± 1.12 h. For the same compound, the “increase of AUClast in GQD group compared with the Huang-Lian group” value ([2]; rats, oral, GQD vs Huang-Lian) was 96.5%, the “improvement of plasma concentrations by GQD (vs Huang-Lian)” value ([2]; rats, oral, abstract) was “at least 30%” and the “transport rate of BER, PAB (influx, apical to basolateral)” value ([3]; with GLY 5 μM) was 84%. The “transport rate of BER, PBA (efflux)” value ([3]; with GLY 5 μM) was 10%, the “transport rate of BER, PAB (influx, apical to basolateral)” value ([3]; without GLY) was 59% and the “transport rate of BER, PBA (efflux)” value ([3]; without GLY) was 34%.
For `CC1(C)[C@@H](O[C@H]2O[C@H](C(=O)O)[C@@H](O)[C@H](O)[C@H]2O[C@@H]2O[C@H](C(=O)O)[C@@H](O)[C@H](O)[C@H]2O)CC[C@]2(C)[C@H]3C(=O)C=C4[C@@H]5C[C@@](C)(C(=O)O)CC[C@]5(C)CC[C@@]4(C)[C@]3(C)CC[C@@H]12` [Compound 36, glycyrrhizic acid], the “interaction with P-gp” value ([1]; listed as GLY) was “inhibiting P-glycoprotein; also recorded: P-gp inhibitor”, the “counteraction of the impact of rifampicin on BER transport” value ([1]; GLY 5 μM, especially after 150 min treatment) was “could counteract the impact of 5 or 20, but not 50 μM rifampicin” and the AUClast [2, 8] was 790.47 ± 362.54 ng·h/mL. For the same compound, the AUC(0-t) [2, 4] was 871 ± 571 ng·h/mL, the AUC(0-t) ([2]; plasma, 18.9 g/kg, GQD group: rats, oral GQD 18.9 g/kg (1.5-fold of clinical dosage), plasma) was 871 ± 571 ng·h/mL and the Cmax [2, 8] was 46.4 ± 0.89 ng/mL. For the same compound, the half-life [2, 8] was 4.08 ± 1.07 h, the Tmax [2, 8] was 5.89 ± 0.98 h and the Cmax [2, 5] was 55.6 ± 14.3 ng/mL. For the same compound, the half-life [2, 5] was 4.78 ± 9.98 h, the Tmax [2, 5] was 6.9 ± 0.28 h and the “change of pharmacokinetics by GQD compared with Gan-Cao” value ([2]; rats, oral) was “hardly changed”.
